The test system of one experiment is lipoprotein lipase (LpL). The experiment is described as follows: Lipoprotein lipase (LpL) in vitro activity assay with fluorogenic TG substrate EnzChek. In kind it is biochemical. The note with it: for LpL stimulating activity of domain substitution peptides relative to AV199-232: knockout substitutions in AV199-232 domains. How it is done:
FIG. 3A-C. Lipoprotein lipase (LpL) activity assay using a fluorogenic TG analog, EnzChek (Invitrogen). The enzyme reaction mix was composed of increasing concentrations of LpL in 100 μl Tris buffered saline (TBS), 1% BSA, pH 7.8, 0.015% Zwittergent 3-14 and 1 μM EnzChek substrate. Reaction was monitored by fluorescence (λex=482 nm, λem=515 nm) and the relative fluorescence units (RFU) against time plotted (A). BODIPY labeled fatty acid (BODIPY-FA) was used to determine product concentration generated with the lipase (B). Structure of the EnzChek substrate (E33955) which was purchased from Invitrogen Inc. (C).
To search for lipase stimulators, a lipase assay was employed using a commercially available fluorogenic-TG substrate (EnzChek) supplied by Molecular Probes (FIG. 3). The protocol was adapted from Basu et al., (Basu et al. (2011) J.Lipid Res. 52, 826-832; herein incorporated by reference in its entirety) with minor modifications in pH and detergent. For in vitro assays, LpL (SIGMA) was diluted to 0.12 μg/ml in 20 mM Tris-HCl, 150 mM NaCl, 1% BSA, 0.015% Zwittergent 3-14, pH 7.8, 1 μM EnzChek substrate, prepared in 96-well black microtiter plates. For some assays the plates were incubates at 37° C. for 10min. Detection was performed in a Synergy H1 Multi-Mode Reader using excitation/emission wavelengths of 482 nm and 515 nm, respectively. […] Moreover, the product produced could be quantified using BODIPY-C12 fatty acids to determine the molar rates of enzyme reaction. Since the assay uses a non-toxic substrate and a low amount of neutral detergent it is possible to use this assay with live cells (FIG. 4). The lipase activities assayed were sensitive to both the removal of lipase (HL) from the surface of hepatocytes (by a heparin pre-wash) and to apolipoproteins present in isolated lipoproteins, VLDL, LDL and HDL preparations.

The target of a further experiment is T1, LpL in THP-1 macrophages (Homo sapiens, UniProt P06858).
T1 construct: endogenous in cells; host or cells: THP-1 macrophages
T1 sequence (P06858 28-475): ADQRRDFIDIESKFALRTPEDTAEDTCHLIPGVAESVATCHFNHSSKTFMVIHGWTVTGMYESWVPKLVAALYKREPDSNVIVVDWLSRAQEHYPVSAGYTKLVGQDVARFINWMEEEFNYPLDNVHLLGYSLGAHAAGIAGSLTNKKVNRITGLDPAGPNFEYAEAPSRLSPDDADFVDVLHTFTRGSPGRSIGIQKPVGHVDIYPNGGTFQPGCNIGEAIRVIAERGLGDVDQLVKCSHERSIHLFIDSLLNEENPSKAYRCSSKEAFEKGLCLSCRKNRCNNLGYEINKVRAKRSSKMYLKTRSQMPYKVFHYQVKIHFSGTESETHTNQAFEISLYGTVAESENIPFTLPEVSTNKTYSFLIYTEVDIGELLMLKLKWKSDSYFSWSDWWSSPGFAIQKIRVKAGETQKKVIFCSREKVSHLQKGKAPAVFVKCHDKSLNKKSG
In words: Lipase activity in cultures of live THP-1 macrophages. In kind it is cell-based. The note with it: live THP-1 macrophages known to express LpL. The procedure:
FIG. 8. Determining the minimum peptide sequence (A) harboring full lipase stimulating activity (B, D). […] Assays were performed by adding 10 μM of peptide to in vitro LpL assays (B) or to hepatocyte (HepG2) cell cultures (D). In 24 well tissue culture plates, cells were incubated for 1 hr at 37° C. in 200 μL TBS, 1.5% BSA, 0.2% zwittergent 3-14, 1μM EnzChek substrate. AV199-232 was also active in cultures of live THP-1 macrophages known to express LpL (C).

The subject of another experiment is VLDL. In words: VLDL binding, complexes isolated by gel filtration on Sepharose CL-4B, then LpL assay. How it is done:
VLDL (100 μg) was incubated with AV199-232 (50 μg) and complexes were isolated from free peptide by gel filtration on a Sepharose CL-4B column (FIG. 15A).

Another experiment has as its target T2, Leukocyte-LpL (Homo sapiens, UniProt P06858).
T2 construct: endogenous in cells; host or cells: leukocytes isolated from fresh human blood
T2 sequence (P06858 28-475): T1 sequence (P06858 28-475)
In words: LpL activity in live leukocytes isolated from fresh human blood. The class given is cell-based. The procedure:
(§1) The removal of cell surface LpL with heparin reduced activity.
(§2) Plasma contains lipoproteins with apoC-III and ANGPT4, known inhibitors of LpL activity. However, LpL activity in live leukocytes was stimulated by AV199-232 (FIG. 23C). […] AV199-232 was incubated with whole plasma from normal and diabetic/dyslipidemic plasma and then the TG-rich lipoproteins (Lp) were isolated by PEG-8000 precipitation and added to LpL assays (30 μg/ml).

The subject of experiment [1] is LpL. In words: LpL activity in the presence of human plasma / plasma TG-rich lipoproteins. In kind it is biochemical. The conditions noted are these: normal and dyslipidemic plasma. The procedure:
as §1, §2

The test system of experiment [2] is LpL. In words: LpL enzyme kinetics (Vmax, Km) by Michaelis-Menten fitting. The class given is biochemical. The procedure: FIG. 9. […] Lipase reaction was performed with different substrate concentrations (0-25 μM) (A, C, D) to determine the kinetic parameters of LpL enzymatic activity, +/− VLDL (10 μg/ml) and +/− AV199-232 (2.5 μM). (B) The addition of VLDL reduced the enzymes affinity for substrate by 5.3-fold which is consistent with inhibition by apoC-III. […] Kinetic parameters were determined using GraphPad Prism software curve fitting to the Michaelis-Menten enzyme kinetic equation.
The influence of AV199-232 on the kinetic parameters of LpL activity (e.g., Vmax and Km) was investigated (FIG. 9A-B). […] This was due to the apoC-III content of VLDL. […] Also AV199-232 was functional in the presence of apoC-III in VLDL. The effect of different lipoproteins on LpL kinetics was compared (FIG. 9D).

Experiment [3] is described as follows: Heparin binding (circular dichroism on addition of heparin). How it is done: FIG. 10. AV199-232 is an a-helical peptide that binds heparin. Peptide folding and conformation was analyzed experimentally by circular dichroism spectroscopy (A) and calculated to be ˜42% α-helical which increased to ˜76% on binding heparin.
Given that there appeared to be a periodicity in the sequence of AV199-232 consisting of alternating polar and non-polar residues, the possibility that the peptide was folded into a amphipathic α-helix was investigated (FIG. 10). […] In silico analysis also predicted a high α-helical content. […] The amphipathic nature of the peptide was evident with polar residues and nonpolar residues (domain-L) organized to opposite sides of the helix. Domain-L is responsible for binding to VLDL. Domain-1, domain-2 and domain-H were also identified on the polar side.
For orientation: Circular dichroism is the unequal absorption of left and right circularly polarised light.

Where [4] appears, read: peptides 80 μg/ml preincubated with VLDL 20 μg/ml.
Where [5] appears, read: peptide added to LpL without VLDL, 10 μM.

Values joined by “and” are separate entries in the source; they are usually repeats but may differ in a detail not shown here. Identical values can stand only once. “Also recorded” adds a separate entry of the source.

For “SEQ ID NO: 22: AV-H/K with L10Q, L21Q and L29Q substitutions (ARLSRCVQVQSRKLTQKAKALKARIQQNQDQLRE; Mutated wild-type peptide)”, in the experiment with lipoprotein lipase (LpL) (setting [4]), the “lipase stimulating activity relative to AV-H/K” value is recorded as “reduced lipase stimulating activity”.

For “AV199-237: synthetic peptide spanning residues 199-237 of mature human apoA-V (ARLSRCVQVLSRKLTLKAKALHARIQQNLDQLREELSRA; listed as Homo sapiens)”, the “influence on LpL activity” value is “exceeded that seen with an apoC-II peptide (C-II50-79); also recorded: stimulated LpL activity in the presence of VLDL” in the experiment with lipoprotein lipase (LpL) (in the presence of VLDL) and “no change in activity; also recorded: did not increase enzyme activity” with lipoprotein lipase (LpL) (setting [5]). In the experiment with lipoprotein lipase (LpL) (peptide incubated with VLDL before adding to LpL, 10 μM), the “stimulation of LpL activity” value is given as approximately 4 fold.

Take “SEQ ID NO: 23: AV-H/K with L10F and L29F substitutions (ARLSRCVQVFSRKLTLKAKALKARIQQNFDQLRE; Mutated wild-type peptide)”: the “improvement in lipase stimulating activity relative to AV-H/K” value in the experiment with lipoprotein lipase (LpL) (setting [4]) is “about 2 fold”.

Take “Dom1KO: AV199-232 with domain 1 substitutions R12Q/D30S (ARLSRCVQVLSQKLTLKAKALHARIQQNLSQLRE)”: in the experiment with lipoprotein lipase (LpL), the “LpL stimulating activity of domain substitution peptides relative to AV199-232” value is recorded as “significant reduction”.

On to “Dom2KO: AV199-232 with domain 2 substitutions K13Q/K17Q (ARLSRCVQVLSRQLTLQAKALHARIQQNLDQLRE)”, for which the “LpL stimulating activity of domain substitution peptides relative to AV199-232” value with lipoprotein lipase (LpL) is “significant reduction”.

Consider “AV250-288: peptide spanning residues 250-288 of apoA-V (DPQMLSEEVRQRLQAFRQDTYLQIAAFTRAIDQETEEVQ)”, for which the results for the “influence on LpL activity” value in the experiment on lipoprotein lipase (LpL) (in the presence of VLDL) and in the experiment on lipoprotein lipase (LpL) (setting [5]) were “Little or no stimulating activity; also recorded: did not” and “Little or no stimulating activity”, respectively.

With “Dom1(E34K): AV199-232 with E34K substitution in domain 1 (ARLSRCVQVLSRKLTLKAKALHARIQQNLDQLRK)”, the “LpL stimulating activity of domain substitution peptides relative to AV199-232” value in the experiment with lipoprotein lipase (LpL) was “did not influence AV199-232 activity”.

Turning to “DomLKO: peptide with domain L substitutions L10Q/L21Q/L29Q (ARLSRCVQVQSRKLTLKAKAQHARIQQNQDQLRE)”, the “LpL stimulating activity of domain substitution peptides relative to AV199-232” value in the experiment on lipoprotein lipase (LpL) is reported as “moderate reduction in activity”.

Take “AV199-232: 34-residue peptide, residues 199-232 of apoA-V; AV199-237 shortened by 5 residues (ARLSRCVQVLSRKLTLKAKALHARIQQNLDQLRE; listed as Homo sapiens)”: the “lipase stimulating activity in THP-1 macrophages” value with LpL in THP-1 macrophages is recorded as “active”. Further, in the experiment on VLDL (VLDL 100 μg incubated with AV199-232 50 μg), the VLDL binding result is reported as “binds VLDL”. Besides, in the experiment with VLDL (void fraction (Vo) of gel filtration added to LpL), the “LpL stimulation by the isolated VLDL:AV199-232 complex” value is reported as “effective at stimulating LpL activity; also recorded: stimulates LpL activity”. Besides, the “lipase stimulating activity of the shortened peptide relative to AV199-237” value in the experiment with lipoprotein lipase (LpL) (10 μM, in vitro LpL assays and HepG2 cell cultures) was “harbored full activity and was actually somewhat more potent; also recorded: enhancement of activity”. Moreover, the “stimulation of LpL activity in live leukocytes” value in the experiment with Leukocyte-LpL is listed as “responds; also recorded: stimulated; also recorded: responsive”. Further, the “stimulation of LpL activity in the presence of plasma” value in the experiment with LpL [1] is listed as “stimulates LpL activity”. In the experiment with LpL [2] (AV199-232 2.5 μM + VLDL 10 μg/ml), the “increase of LpL's apparent affinity for substrate (Km improvement)” value was ~8 fold and 7.8 fold. Moreover, the “changes in the Vmax and Km of LpL” value with LpL [2] (AV199-232 2.5 μM without VLDL) is “only marginal changes”. Also, the heparin binding result in experiment [3] was “heparin binding activity; also recorded: binds heparin”.

On to “AV-H/K: AV199-232 peptide with H in domain-H replaced with a K (ARLSRCVQVLSRKLTLKAKALKARIQQNLDQLRE; Mutated wild-type peptide)”, for which the “stimulation of LpL activity in the presence of plasma” value in the experiment on LpL [1] is reported as “stimulates LpL”.

Source of the values: patent publication US20170305981A1, “SYNTHETIC PEPTIDES” (The University of Chicago, priority 2014, published 2017).
